Bridge positions count the residues as written; N and C are the ends. Peptide text beside a SMILES is read from it.
Tests used:
Type in all cases: in vivo
growth hormone = assay: Arginine-stimulated growth hormone secretion in Nembutal-anesthetized rats; conditions: for GH: albino male rats, blood 15 min after dose (5 min after arginine), control 288 ± 30, * = p < 0.01
Procedure: (§1) Albino male rats were administered Nembutal intraperitoneally at a dose of 50 milligrams per kilogram. Fifteen minutes later a subcutaneous injection of the test compound or physiological saline was administered. Ten minutes later 0.5 milliliters of arginine (300 milligrams per milliliter, pH 7.2) is injected into the heart. Five minutes after receipt of the arginine the rats are decapitated and blood is collected into trasylol-EDTA. An appropriate aliquot was assayed for growth hormone, insulin and glucagon.

insulin = assay: Arginine-stimulated insulin secretion in Nembutal-anesthetized rats; conditions: for Insulin: albino male rats, blood 15 min after dose (5 min after arginine), control 372 ± 47
Procedure: as §1

glucagon = assay: Arginine-stimulated glucagon secretion in Nembutal-anesthetized rats; conditions: for Glucagon: albino male rats, blood 15 min after dose (5 min after arginine), control 51 ± 4, * = p < 0.01
Procedure: as §1

Row | SMILES | GH (growth hormone; 1300 ug/kg subcutaneous) [ng/mL] | reducing secretion of growth hormone (in words) (growth hormone; summary of rat assay) | Insulin (insulin; 1300 ug/kg subcutaneous) [μU/ml] | effect on insulin levels (in words) (insulin; summary of rat assay) | Glucagon (glucagon; 1300 ug/kg subcutaneous) [pg/mL] | reducing secretion of glucagon (in words) (glucagon; summary of rat assay) | GH (growth hormone; 200 ug/kg subcutaneous) [ng/mL] | Insulin (insulin; 200 ug/kg subcutaneous, + = p < 0.05) [μU/ml] | Glucagon (glucagon; 200 ug/kg subcutaneous) [pg/mL]
1 | C[C@H](N)C(=O)NCC(=O)N[C@H]1CSSC[C@@H](C(=O)O)NC(=O)[C@H](CO)NC(=O)[C@H]([C@@H](C)O)NC(=O)[C@H](Cc2ccccc2)NC(=O)[C@H]([C@@H](C)O)NC(=O)[C@H](CCCCN)NC(=O)[C@H](Cc2c[nH]c3ccccc23)NC(=O)[C@H](Cc2ccccc2)NC(=O)[C@H](Cc2ccccc2)NC(=O)[C@H](Cc2c[nH]cn2)NC(=O)[C@H](CCCCN)NC1=O [(His^5)SRIF, L-Alanyl-glycyl-L-cysteinyl-lysyl-L-histidyl-L-phenylalanyl-L-phenylalanyl-L-tryptophyl-L-lysyl-L-threonyl-L-phenylalanyl-L-threonyl-L-seryl-L-cysteine(3-14 cyclic)disulfide] (H-AGCKHFFWKTFTSC-OH; disulfide 3-14) | 83 ± 15 | effective agent for reducing secretion of growth hormone | 390 ± 94 | without materially affecting insulin levels | 31 ± 6 | effective agent for reducing secretion of growth hormone and glucagon | – | – | –
2 | C[C@H](N)C(=O)NCC(=O)N[C@H]1CSSC[C@@H](C(=O)O)NC(=O)[C@H](CO)NC(=O)[C@H]([C@@H](C)O)NC(=O)[C@H](Cc2ccccc2)NC(=O)[C@H]([C@@H](C)O)NC(=O)[C@H](CCCCN)NC(=O)[C@H](Cc2c[nH]c3ccccc23)NC(=O)[C@H](Cc2ccccc2)NC(=O)[C@H](Cc2ccccc2)NC(=O)[C@H](CC(N)=O)NC(=O)[C@H](CCCCN)NC1=O [SRIF, reference compound] | – | – | – | – | – | – | 66 ± 11 | 232 ± 23 | 26 ± 6
